Assay results taken from the CheMixHub viscosity set.
± gives the uncertainty stated by the source.

Experiment: xn = mol fraction of the nth substance listed

SMILES: CC(C)=O + CC(C)O
- viscosity (298.15 K, 101 kPa, x2 = 0.152): 0.347 ± 0.004 mPa·s
- viscosity (298.15 K, 101 kPa, x2 = 0.161): 0.349 ± 0.004 mPa·s
- viscosity (298.15 K, 101 kPa, x2 = 0.292): 0.389 ± 0.004 mPa·s
- viscosity (298.15 K, 101 kPa, x2 = 0.302): 0.395 ± 0.004 mPa·s
- viscosity (298.15 K, 101 kPa, x2 = 0.452): 0.486 ± 0.005 mPa·s
- viscosity (298.15 K, 101 kPa, x2 = 0.486): 0.507 ± 0.005 mPa·s
- viscosity (298.15 K, 101 kPa, x2 = 0.488): 0.513 ± 0.005 mPa·s
- viscosity (298.15 K, 101 kPa, x2 = 0.661): 0.703 ± 0.006 mPa·s
- viscosity (298.15 K, 101 kPa, x2 = 0.812): 1.071 ± 0.009 mPa·s
- viscosity (298.15 K, 101 kPa, x2 = 0.849): 1.187 ± 0.009 mPa·s

SMILES: CC(C)=O + CCCO
- viscosity (293.15 K, 100 kPa, x1 = 0.0998): 1.594 ± 0.064 mPa·s
- viscosity (293.15 K, 100 kPa, x1 = 0.1998): 1.18 ± 0.048 mPa·s
- viscosity (293.15 K, 100 kPa, x1 = 0.3): 0.9113 ± 0.037 mPa·s
- viscosity (293.15 K, 100 kPa, x1 = 0.4001): 0.735 ± 0.03 mPa·s
- viscosity (293.15 K, 100 kPa, x1 = 0.4999): 0.6175 ± 0.025 mPa·s
- viscosity (293.15 K, 100 kPa, x1 = 0.6): 0.5137 ± 0.021 mPa·s
- viscosity (293.15 K, 100 kPa, x1 = 0.6998): 0.4493 ± 0.019 mPa·s
- viscosity (293.15 K, 100 kPa, x1 = 0.8002): 0.407 ± 0.017 mPa·s
- viscosity (293.15 K, 100 kPa, x1 = 0.9): 0.3728 ± 0.016 mPa·s
- viscosity (298.15 K, 100 kPa, x1 = 0.0998): 1.433 ± 0.058 mPa·s
- viscosity (298.15 K, 100 kPa, x1 = 0.1998): 1.075 ± 0.044 mPa·s
- viscosity (298.15 K, 100 kPa, x1 = 0.3): 0.8407 ± 0.034 mPa·s
- viscosity (298.15 K, 100 kPa, x1 = 0.4001): 0.6844 ± 0.028 mPa·s
- viscosity (298.15 K, 100 kPa, x1 = 0.4999): 0.5801 ± 0.024 mPa·s
- viscosity (298.15 K, 100 kPa, x1 = 0.6): 0.4875 ± 0.02 mPa·s
- viscosity (298.15 K, 100 kPa, x1 = 0.6998): 0.429 ± 0.018 mPa·s
- viscosity (298.15 K, 100 kPa, x1 = 0.8002): 0.391 ± 0.016 mPa·s
- viscosity (298.15 K, 100 kPa, x1 = 0.9): 0.3531 ± 0.015 mPa·s
- viscosity (298.15 K, 101 kPa, x1 = 0.1032): 1.433 ± 0.014 mPa·s
- viscosity (298.15 K, 101 kPa, x1 = 0.2056): 0.9891 ± 0.0098 mPa·s
- viscosity (298.15 K, 101 kPa, x1 = 0.3073): 0.7819 ± 0.0078 mPa·s
- viscosity (298.15 K, 101 kPa, x1 = 0.4083): 0.6403 ± 0.0065 mPa·s
- viscosity (298.15 K, 101 kPa, x1 = 0.5086): 0.5381 ± 0.0056 mPa·s
- viscosity (298.15 K, 101 kPa, x1 = 0.6082): 0.4652 ± 0.0049 mPa·s
- viscosity (298.15 K, 101 kPa, x1 = 0.7072): 0.4139 ± 0.0045 mPa·s
- viscosity (298.15 K, 101 kPa, x1 = 0.8055): 0.3742 ± 0.0041 mPa·s
- viscosity (298.15 K, 101 kPa, x1 = 0.903): 0.3453 ± 0.0039 mPa·s
- viscosity (303.15 K, 100 kPa, x1 = 0.0998): 1.292 ± 0.052 mPa·s
- viscosity (303.15 K, 100 kPa, x1 = 0.1998): 0.9822 ± 0.04 mPa·s
- viscosity (303.15 K, 100 kPa, x1 = 0.3): 0.7774 ± 0.032 mPa·s
- viscosity (303.15 K, 100 kPa, x1 = 0.4001): 0.6379 ± 0.026 mPa·s
- viscosity (303.15 K, 100 kPa, x1 = 0.4999): 0.5456 ± 0.022 mPa·s
- viscosity (303.15 K, 100 kPa, x1 = 0.6): 0.4629 ± 0.019 mPa·s
- viscosity (303.15 K, 100 kPa, x1 = 0.6998): 0.4094 ± 0.017 mPa·s
- viscosity (303.15 K, 100 kPa, x1 = 0.8002): 0.3751 ± 0.016 mPa·s
- viscosity (303.15 K, 100 kPa, x1 = 0.9): 0.34 ± 0.014 mPa·s
- viscosity (308.15 K, 100 kPa, x1 = 0.0998): 1.169 ± 0.047 mPa·s
- viscosity (308.15 K, 100 kPa, x1 = 0.1998): 0.8994 ± 0.037 mPa·s
- viscosity (308.15 K, 100 kPa, x1 = 0.3): 0.7203 ± 0.029 mPa·s
- viscosity (308.15 K, 100 kPa, x1 = 0.4001): 0.595 ± 0.024 mPa·s
- viscosity (308.15 K, 100 kPa, x1 = 0.4999): 0.513 ± 0.021 mPa·s
- viscosity (308.15 K, 100 kPa, x1 = 0.6): 0.4389 ± 0.018 mPa·s
- viscosity (308.15 K, 100 kPa, x1 = 0.6998): 0.3911 ± 0.016 mPa·s
- viscosity (308.15 K, 100 kPa, x1 = 0.8002): 0.3599 ± 0.015 mPa·s
- viscosity (308.15 K, 100 kPa, x1 = 0.9001): 0.3221 ± 0.014 mPa·s
- viscosity (313.15 K, 100 kPa, x1 = 0.0998): 1.061 ± 0.043 mPa·s
- viscosity (313.15 K, 100 kPa, x1 = 0.1998): 0.825 ± 0.034 mPa·s
- viscosity (313.15 K, 100 kPa, x1 = 0.3): 0.6684 ± 0.027 mPa·s
- viscosity (313.15 K, 100 kPa, x1 = 0.4001): 0.5538 ± 0.023 mPa·s
- viscosity (313.15 K, 100 kPa, x1 = 0.4999): 0.4815 ± 0.02 mPa·s
- viscosity (313.15 K, 100 kPa, x1 = 0.6): 0.4158 ± 0.017 mPa·s
- viscosity (313.15 K, 100 kPa, x1 = 0.6998): 0.3733 ± 0.016 mPa·s
- viscosity (313.15 K, 100 kPa, x1 = 0.8002): 0.3448 ± 0.015 mPa·s
- viscosity (313.15 K, 100 kPa, x1 = 0.9): 0.301 ± 0.013 mPa·s
- viscosity (318.15 K, 100 kPa, x1 = 0.0998): 0.9672 ± 0.039 mPa·s
- viscosity (318.15 K, 100 kPa, x1 = 0.1998): 0.7583 ± 0.031 mPa·s
- viscosity (318.15 K, 100 kPa, x1 = 0.3): 0.6206 ± 0.025 mPa·s
- viscosity (318.15 K, 100 kPa, x1 = 0.4001): 0.5147 ± 0.021 mPa·s
- viscosity (318.15 K, 100 kPa, x1 = 0.4999): 0.4495 ± 0.019 mPa·s
- viscosity (318.15 K, 100 kPa, x1 = 0.6): 0.392 ± 0.016 mPa·s
- viscosity (318.15 K, 100 kPa, x1 = 0.6998): 0.3543 ± 0.015 mPa·s
- viscosity (318.15 K, 100 kPa, x1 = 0.8002): 0.3286 ± 0.014 mPa·s
- viscosity (318.15 K, 100 kPa, x1 = 0.9): 0.2875 ± 0.012 mPa·s
- viscosity (323.15 K, 100 kPa, x1 = 0.0998): 0.8879 ± 0.036 mPa·s
- viscosity (323.15 K, 100 kPa, x1 = 0.1998): 0.6972 ± 0.028 mPa·s
- viscosity (323.15 K, 100 kPa, x1 = 0.3): 0.576 ± 0.024 mPa·s
- viscosity (323.15 K, 100 kPa, x1 = 0.4001): 0.4769 ± 0.02 mPa·s
- viscosity (323.15 K, 100 kPa, x1 = 0.4999): 0.4195 ± 0.017 mPa·s
- viscosity (323.15 K, 100 kPa, x1 = 0.6): 0.3661 ± 0.015 mPa·s
- viscosity (323.15 K, 100 kPa, x1 = 0.6998): 0.3317 ± 0.014 mPa·s
- viscosity (323.15 K, 100 kPa, x1 = 0.8002): 0.3156 ± 0.013 mPa·s
- viscosity (323.15 K, 100 kPa, x1 = 0.9): 0.279 ± 0.012 mPa·s
